From patent publication US4663320A, “(2-oxo-1,2,3,5-tetrahydroimidazo[2,1-b]quinoazolinyl)oxyalkylamides, compositions and the use thereof” (Syntex (U.S.A.) Inc., priority 1985, dated 1987) come the findings set out here.

One data set has as its system Mongrel dogs. Description: Inotropic activity in anesthetized dogs. It is filed as in vivo. The following applies: dog. The procedure: Mongrel dogs were anesthetized intravenously with 35 mg/Kg sodium pentobarbital and supplemented as needed. Blood pressure was measured with a Statham pressure transducer via a cannula inserted from a femoral artery into the abdominal aorta. Heart rate was recorded by a cardiotachometer from a lead II electrocardiogram. Right ventricular contractile force was recorded from a Walton-Brodie strain gauge sutured to the right ventricle following a midsternal thoracotomy. A Harvard respirator was used to ventilate the dogs with room air through an endotracheal tube. The dog was bilaterally vagotomized. Following a midline laparotomy, a cannula was sutured into the duodenum for intraduodenal administration of test compound. A femoral vein was cannulated for administration of isoproterenol. All data were recorded on a Beckman R611 Dynograph.
To assess the responsiveness of each dog, isoproterenol was given intravenously at half-log interval doses from 0.007 to 2.1 or 6.67 μg/Kg. The test compound was then administered intraduodenally, usually at a low dose of 2 mg/Kg and subsequently at higher doses of 6.32 and/or 20 mg/Kg, if necessary. In a few instances, some compounds administered intraduodenally at dose levels from 0.316 to 3.16 mg/Kg.

In data set [1] the test system is Human platelet cyclic AMP phosphodiesterase. In words: Cyclic AMP phosphodiesterase assay (human platelet). It is filed as biochemical. As to conditions: for IC50: human platelet phosphodiesterase, 1 μM cyclic AMP as substrate; for Relative Potency: relative to theophylline (assigned a value of 1) on human platelet phosphodiesterase. The procedure: (§1) The inhibition of cyclic AMP phosphodiesterase activity by the subject compounds was assayed by the method of Filburn and Karn, Analyt. Biochem., 52:505-516 (1973), using 1 μM cyclic AMP as the substrate. Human platelet cyclic AMP phosphodiesterase was obtained from human donors. Platelets were isolated and washed by centrifugation, the membranes ruptured by a sequential freeze-thaw procedure and hypotonic lysis and the soluble enzyme isolated by high speed centrifugation. The enzyme was stored in aliquots at -20° C.
(§2) This table contains the IC50 values for human platelet phosphodiesterase and IC25 values for rat heart phosphodiesterase.

The subject of data set [2] is rat heart phosphodiesterase. In words: Cyclic AMP phosphodiesterase inhibition (rat heart). It is filed as biochemical. As to the method: as §1, §2
The nature of data set [3]: Acute and delayed toxicity in mice. It is filed as in vivo. The following applies: mouse, in vivo, mice, aqueous suspension (polysorbate 80). The procedure: (§3) Three groups of three male mice (Sim:(ICR)fBR) in a weight range of 20 to 24 grams were used in this study. N-cyclohexyl-N-methyl-4-(2-oxo-1,2,3,5-tetrahydroimidazo[2,1-b]quinazolin- 7-yl)oxy-butyramide was administered intraperitoneally as an aqueous suspension (polysorbate 80).
(§4) When the test compound was administered orally, also as an aqueous suspension (polysorbate 80), the results are as follows: […]

The subject of another data set is male mice (Sim:(ICR)fBR). In words: Acute and delayed toxicity in mice. It is filed as in vivo. As to conditions: deaths/animals. The procedure:
as §3, §4

For the next data set, the system named is B16-F10 melanoma cells. Description: Antimetastatic activity against B-16 Melanoma (B16-F10). It is filed as in vivo, mouse. The following applies: oral 5 mg/kg every other day, day 20-21, control 23, p ≤ 0.01. As to the method:
(§5) Mice (female, C57B1/6, 16-18 gm) were injected intravenously with either 7.5×10^4 viable B16-BL6 or B16-F10 melanoma cells, as indicated. The mice were orally treated with vehicle or drug, starting one day after tumor cell injection, and continuing every other day until the mice were sacrificed 20-21 days after tumor cell inoculation. The number of lung metastases was determined as described above, and the results are shown in Table IV (B16-BL6) or Table V (B16-F10).

The subject of the next data set is B16-BL6 melanoma cells. In words: Antimetastatic activity against B-16 Melanoma (B16-BL6). It is filed as in vivo, mouse. The following applies: oral 5 mg/kg every other day, day 20-21, control 10, p ≤ 0.02. The procedure: as §5
Another data set relates to Lewis Lung Carcinoma. Description: Antimetastatic activity against Lewis Lung Carcinoma (Spontaneous Metastases). It is filed as in vivo, mouse. The following applies: oral 5 mg/kg every other day, day 20-21, p < 0.05. The procedure: Mice (female, C57B1/6, 16-18 gm) were inoculated subcutaneously between the inguinal and axillary areas with 0.2 ml of a freshly prepared tumor brei. Mice were treated orally with control vehicle (0.5% carboxymethylcellulose (CMC) or with test compound in suspension in 0.5% CMC. Treatments were initiated one day after tumor implantation, and continued every other day throughout the experiment. 20-21 days after initial implantation of the tumor, mice were sacrificed, weight of the primary tumor was determined, and the number of lung metastases was determined by counting under a disecting microscope. The results are shown in Table III.

Read-outs that look alike come from different tables or passages of the source. A value given as a limit tells only on which side of the number the result lay.

As usually defined, the IC50 is the point on the concentration scale where inhibition reaches its midpoint. Read a low IC50 as greater potency. One may read the LD50 as the dose expected to kill half of the subjects tested.

As for `C[C@@H]1C(=O)NC2=Nc3ccc(OCCCC(=O)N(C)C4CCCCC4)cc3CN21` [N-cyclohexyl-N-methyl-4-(2-oxo-3-D-methyl-1,2,3,5-tetrahydroimidazo[2,1-b]quinazolin-7-yl)oxybutyramide], in the data set on Mongrel dogs (i.v., 0.1 mg/kg), the “Blood Pressure, peak effect as % of max. isoproterenol” value (shortened to “Blood Pressure, peak effect as %”) was determined as 82%; the “Heart Rate, peak effect as % of max. isoproterenol” value (“Heart Rate, peak effect as %” below) stood at 73%; the “Rt. Ventricular Contractile Force, peak effect as % of max. isoproterenol” value amounted to 43%. Moreover, in the data set with Mongrel dogs (intraduodenal, 0.316 mg/kg), the “Blood Pressure, peak effect as %” value amounted to 13%; the “Heart Rate, peak effect as %” value is 18%; the “Rt. Ventricular Contractile Force, peak effect as % of max. isoproterenol” value was 18%. In the data set on Mongrel dogs (intraduodenal, 1.0 mg/kg), the “Blood Pressure, peak effect as %” value is reported as 49%; the “Heart Rate, peak effect as %” value is on record as 48%; the “Rt. Ventricular Contractile Force, peak effect as % of max. isoproterenol” value is given as 50%. Besides, in the data set with Mongrel dogs (intraduodenal, 3.16 mg/kg), the “Blood Pressure, peak effect as %” value was determined as 82%; the “Heart Rate, peak effect as %” value stood at 72%; the “Rt. Ventricular Contractile Force, peak effect as % of max. isoproterenol” value was found to be 53%. In data set [1], the IC50 turned out to be 5.4 nM and the “Relative Potency” value is listed as 50,000. In addition, in data set [2], the “Rat Heart IC25” value was 27 nM.
Regarding `CN(C(=O)CCCOc1ccc2c(c1)CN1CC(=O)NC1=N2)C1CCCCC1` [N-cyclohexyl-N-methyl-4-(2-oxo-1,2,3,5-tetrahydroimidazo[2,1-b]quinazolin-7-yl)oxybutyramide], the “Blood Pressure, peak effect as %” value is on record as 25% with Mongrel dogs (intraduodenal, 2 mg/kg) and 96% in the data set with Mongrel dogs (intraduodenal, 6.23 mg/kg). In addition, the “Heart Rate, peak effect as %” value came to 30% in the data set with Mongrel dogs (intraduodenal, 2 mg/kg) and 40% in the data set on Mongrel dogs (intraduodenal, 6.23 mg/kg). Moreover, the “Rt. Ventricular Contractile Force, peak effect as % of max. isoproterenol” value in the data set on Mongrel dogs (intraduodenal, 2 mg/kg) turned out to be 48%; in the data set with Mongrel dogs (intraduodenal, 6.23 mg/kg), 44%. In addition, the LD50 in data set [3] (ip, intraperitoneal, read-out: LD50 (intraperitoneal)) was greater than 1500 mg/kg; in data set [3] (oral, read-out: LD50 (oral)), greater than 1500 mg/kg. In addition, the Death was 0/3 with male mice (Sim:(ICR)fBR) (intraperitoneal, 500 mg/Kg); 0/3 with male mice (Sim:(ICR)fBR) (intraperitoneal, 1,000 mg/Kg); 0/3 with male mice (Sim:(ICR)fBR) (intraperitoneal, 1,500 mg/Kg); 0/3 in the data set with male mice (Sim:(ICR)fBR) (oral, 500 mg/Kg); 0/3 with male mice (Sim:(ICR)fBR) (oral, 1,000 mg/Kg); 0/3 in the data set with male mice (Sim:(ICR)fBR) (oral, 1,500 mg/Kg). Moreover, the “Pulmonary Metastases Median” value in the data set on B16-F10 melanoma cells came to 1.5; with B16-BL6 melanoma cells, 3; in the data set with Lewis Lung Carcinoma (control 28), 10.5. For the same compound, the “Size of Primary Tumor” value in the data set on Lewis Lung Carcinoma (± S.E., control 5.1 ± 0.4) was 3.9 ± 0.4 gm. The compound further showed an IC50 in data set [1] of 12.5 nM. Besides, in data set [1], the “Relative Potency” value was 21,600. Besides, in data set [2], the “Rat Heart IC25” value came to 260 nM.
Turning to `O=C1CN2Cc3cc(OCCCC(=O)NC4CCCCC4)ccc3N=C2N1` [N--cyclohexyl (n = 3, position 7), N-cyclohexyl-4-(2-oxo-1,2,3,5-tetrahydroimidazo-[2,1-b]quinazolin-7-yl)oxybutyramide], in data set [1], the IC50 was 72 nM and the “Relative Potency” value is on record as 38,000. In data set [2], the “Rat Heart IC25” value came to 180 nM.
For `CCN(C(=O)CCCOc1ccc2c(c1)CN1CC(=O)NC1=N2)C1CCCCC1` [N-cyclohexyl-N-ethyl-4-(2-oxo-1,2,3,5-tetrahydroimidazo[2,1-b]quinazolin-7-yl)oxybutyramide], in that order: 1.5 nM, 180,000 and less than 10 nM.
In the same order, the values of `O=C1CN2Cc3cc(OCCCC(=O)N4CCCC5CCCCC54)ccc3N=C2N1` (racemic) [(±)-decahydroquinloninyl-4-(2-oxo-1,2,3,5-tetrahydroimidazo[2,1-b]quinazolin-7-yl)oxybutyramide] are 13.5 nM, 20,000 and 200 nM.
